# Laboratory results from ChEMBL document CHEMBL1129998, “Pharmacological options in the treatment of benign prostatic hyperplasia” (J Med Chem, 1997).
# What was measured:
# [1] = Dose (iv) for 20% reduction of mean blood pressure in rat (ID20) with the dose for 50% inhibition of norepinephrine-mediated contraction of proximal urethra (ID50) in cat; type: functional
# [2] = biological target: T1, Steroid 5-alpha-reductase (Rattus norvegicus, UniProt P24008+P31214); assay: (§1) Binding affinity on rat 5-alpha reductase-1 isozyme; type: protein assay
# T1 sequence (P24008 whole entry): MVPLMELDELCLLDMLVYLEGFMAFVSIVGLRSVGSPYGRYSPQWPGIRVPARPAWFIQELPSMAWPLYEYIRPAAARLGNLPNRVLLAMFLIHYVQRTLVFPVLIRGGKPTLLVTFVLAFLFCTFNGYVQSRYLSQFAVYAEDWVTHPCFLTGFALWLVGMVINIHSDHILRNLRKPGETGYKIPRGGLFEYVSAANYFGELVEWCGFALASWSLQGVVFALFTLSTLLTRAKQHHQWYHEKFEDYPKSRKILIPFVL
# T1 sequence (P31214 whole entry): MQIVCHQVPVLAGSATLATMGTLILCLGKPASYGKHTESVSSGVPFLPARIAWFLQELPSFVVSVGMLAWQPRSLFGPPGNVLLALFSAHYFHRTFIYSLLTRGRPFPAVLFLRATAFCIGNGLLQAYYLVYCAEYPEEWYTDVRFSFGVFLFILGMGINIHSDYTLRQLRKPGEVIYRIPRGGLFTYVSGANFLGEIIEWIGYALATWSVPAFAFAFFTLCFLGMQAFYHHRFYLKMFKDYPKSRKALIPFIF
# [3] = biological target: T2, Alpha-1A adrenergic receptor (Rattus norvegicus, UniProt P43140); assay: Binding affinity was tested on CEC-pretreated rat hippocampus Alpha-1A adrenergic receptor; type: tissue-based
# T2 sequence (P43140 whole entry): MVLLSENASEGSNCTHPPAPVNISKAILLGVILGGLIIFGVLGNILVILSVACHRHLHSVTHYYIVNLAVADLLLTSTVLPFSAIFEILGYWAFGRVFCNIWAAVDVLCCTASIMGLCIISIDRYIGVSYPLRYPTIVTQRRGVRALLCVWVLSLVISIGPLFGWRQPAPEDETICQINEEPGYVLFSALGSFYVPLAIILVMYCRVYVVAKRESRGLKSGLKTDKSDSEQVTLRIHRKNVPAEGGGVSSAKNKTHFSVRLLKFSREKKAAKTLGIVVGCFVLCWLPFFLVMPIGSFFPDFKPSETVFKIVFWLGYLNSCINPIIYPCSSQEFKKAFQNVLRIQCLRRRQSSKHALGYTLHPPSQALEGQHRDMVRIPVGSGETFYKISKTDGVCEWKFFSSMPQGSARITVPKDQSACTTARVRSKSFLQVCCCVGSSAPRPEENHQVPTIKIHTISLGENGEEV
# [4] = biological target: T3, Alpha-1B adrenergic receptor (Rattus norvegicus, UniProt P15823); assay: Binding affinity was tested on CEC-pretreated rat liver Alpha-1B adrenergic receptor
# T3 sequence (P15823 whole entry): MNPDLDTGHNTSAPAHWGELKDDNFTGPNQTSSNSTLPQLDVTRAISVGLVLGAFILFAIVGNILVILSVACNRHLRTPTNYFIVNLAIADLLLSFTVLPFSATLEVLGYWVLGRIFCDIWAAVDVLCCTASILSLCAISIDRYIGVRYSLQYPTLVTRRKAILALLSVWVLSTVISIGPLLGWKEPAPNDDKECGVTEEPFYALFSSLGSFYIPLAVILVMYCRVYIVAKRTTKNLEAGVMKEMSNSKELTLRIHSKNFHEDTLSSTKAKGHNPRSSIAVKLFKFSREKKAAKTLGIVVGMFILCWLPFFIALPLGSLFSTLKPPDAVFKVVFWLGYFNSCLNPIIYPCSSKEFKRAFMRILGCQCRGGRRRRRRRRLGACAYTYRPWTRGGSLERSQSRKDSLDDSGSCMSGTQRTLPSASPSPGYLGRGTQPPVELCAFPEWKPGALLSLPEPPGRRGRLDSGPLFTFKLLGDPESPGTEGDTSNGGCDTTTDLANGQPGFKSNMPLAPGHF
# Canis familiaris = assay: (§2) In vivo dose (iv) for 50% inhibition of norepinephrine-mediated contraction of proximal urethra (ID50) with the dose (iv) for 25% reduction in systolic blood pressure (ED25) in anesthetized dogs; type: functional, Canis lupus familiaris, Artery
# [5] = as §2; type: functional
# [6] = biological target: T4, 3-oxo-5-alpha-steroid 4-dehydrogenase 1 (Homo sapiens, UniProt P18405); assay: Inhibitory concentration on human 5-alpha reductase 1 isozyme
# T4 sequence (P18405 whole entry): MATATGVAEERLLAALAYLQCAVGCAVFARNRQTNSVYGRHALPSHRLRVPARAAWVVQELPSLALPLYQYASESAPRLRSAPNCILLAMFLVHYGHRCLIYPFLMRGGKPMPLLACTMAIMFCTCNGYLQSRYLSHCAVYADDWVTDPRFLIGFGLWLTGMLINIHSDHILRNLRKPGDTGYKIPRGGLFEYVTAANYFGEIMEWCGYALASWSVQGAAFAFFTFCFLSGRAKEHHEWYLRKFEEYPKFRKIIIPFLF
# [7] = biological target: 3 beta-hydroxysteroid dehydrogenase/Delta 5-->4-isomerase type 1 (Homo sapiens, UniProt P14060); assay: Binding affinity on 3 beta-hydroxysteroid dehydrogenase
# Sequence of 3 beta-hydroxysteroid dehydrogenase/Delta 5-->4-isomerase type 1 (P14060 whole entry): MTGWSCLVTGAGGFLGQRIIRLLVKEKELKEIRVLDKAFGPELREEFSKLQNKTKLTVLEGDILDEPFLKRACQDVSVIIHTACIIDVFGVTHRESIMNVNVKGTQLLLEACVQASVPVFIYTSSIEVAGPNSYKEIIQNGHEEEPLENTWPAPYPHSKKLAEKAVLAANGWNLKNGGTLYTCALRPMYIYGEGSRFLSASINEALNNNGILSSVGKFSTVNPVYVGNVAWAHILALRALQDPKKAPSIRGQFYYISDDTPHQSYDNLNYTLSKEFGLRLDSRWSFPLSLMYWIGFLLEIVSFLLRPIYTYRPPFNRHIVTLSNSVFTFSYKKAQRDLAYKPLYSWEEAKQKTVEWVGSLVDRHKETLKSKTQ
# [8] = biological target: T5, 3-oxo-5-alpha-steroid 4-dehydrogenase 2 (Rattus norvegicus, UniProt P31214); assay: Binding affinity on rat 5-alpha reductase-2 isozyme
# T5 sequence (P31214 whole entry): T1 sequence (P31214 whole entry)
# [9] = biological target: T6, 3-oxo-5-alpha-steroid 4-dehydrogenase 1 (Rattus norvegicus, UniProt P24008); assay: as §1
# T6 sequence (P24008 whole entry): T1 sequence (P24008 whole entry)
# [10] = biological target: T7, 3-oxo-5-alpha-steroid 4-dehydrogenase 2 (Homo sapiens, UniProt P31213); assay: Binding affinity for human 5-alpha reductase 2 isozyme
# T7 sequence (P31213 whole entry): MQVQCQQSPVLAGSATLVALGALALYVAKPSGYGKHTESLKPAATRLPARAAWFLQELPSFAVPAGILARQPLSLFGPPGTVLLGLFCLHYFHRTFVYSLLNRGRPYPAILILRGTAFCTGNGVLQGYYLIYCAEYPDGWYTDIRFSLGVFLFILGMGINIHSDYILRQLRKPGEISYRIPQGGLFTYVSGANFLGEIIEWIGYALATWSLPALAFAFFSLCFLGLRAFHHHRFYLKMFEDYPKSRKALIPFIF
# [11] = biological target: T4, 3-oxo-5-alpha-steroid 4-dehydrogenase 1; assay: Binding affinity for human 5 alpha reductase 1 isozyme
smiles,measurement,setting,value
COc1ccccc1N1CCN(CCCNc2nccc(C(N)=O)n2)CC1,Ratio,[1],31
C[C@]12CCC(C(=O)O)=CC1=CCc1cc(Cl)ccc12,Ki,[2],1200 nM
COc1ccccc1N1CCN(CCCC(=O)c2cccc3c(=O)c(C)c(-c4ccccc4)oc23)CC1,IC50,[3],1.5 nM
same,IC50,[4],24 nM
same,Ratio,Canis familiaris,39
COc1ccccc1N1CCN(CCCCOc2cccc3c(=O)c(C)c(-c4ccccc4)oc23)CC1,IC50,[3],10 nM
same,IC50,[4],39 nM
same,Ratio,[5],13
O=C(O)c1cc2cc(OCc3ccccc3)ccc2[nH]1,Ki,[6],> 2500 nM
NC(=O)c1ccnc(NCCCN2CCN(c3cccc(Cl)c3)CC2)n1,Ratio,[1],18
CC(C)(C)CC(C)(C)NC(=O)[C@H]1CCC2C3CNC4=CC(=O)CC[C@]4(C)C3CC[C@@]21C (stereo not given in full),IC50,[7],150 nM
CN1C(=O)CC[C@@H]2c3ccc(Cl)cc3CC[C@H]21 [BEXLOSTERIDE],Ki,[8],10 µM
same,Ki,[9],8 nM
CC1=C2NCC3C(CC[C@@]4(C)C3CC[C@@H]4C(=O)Nc3cc(C(F)(F)F)ccc3C(F)(F)F)[C@@]2(C)CCC1=O (stereo not given in full),IC50,[10],< 0.1 nM
same,Ki,[11],0.2 nM
